# Assay results from patent EP4389751A1, “HETEROCYCLIC COMPOUNDS AND USES THEREOF” (Kumquat Biosciences Inc., priority 2021, dated 2024).
# Where two headings read alike, the source gives them in different places.
# Assays:
# A549 cells = test: Cell proliferation assay (CellTiter-Glo), K-Ras G12S cells; type: cell-based; conditions: for IC50: Homo sapiens; for ratio of IC50 against a G12D cell line to IC50 against a G12S cell line: K-Ras G12D cell line such as GP2D relative to K-Ras G12S cell line such as A549, greater than 1, 2, 3, 4, 5, 10, 15 or even greater, 8640 min
# In short: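 A549 cells (K-Ras G12S) in RPMI-1640 with 10% FBS, seeded in standard or ultra-low-attachment plates and dosed next day with a 10-point 3-fold series. Viability read about 6 days later by CellTiter-Glo luminescence. IC50 from four-parameter fit.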
# GP2D cells = test: Cell proliferation assay (CellTiter-Glo), K-Ras G12D cells; type: cell-based; conditions: read-out: Inhibition of GP2D Cells (IC50)
# In short: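 CellTiter-Glo luminescence, taken roughly 5 days after dosing, measured growth of G12D-mutant GP2D cells in DMEM/2 mM glutamine/10% FBS. Compound dilution series (e.g., 9 points, 3-fold) added the day after plating. Four-parameter fitting gave IC50.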
# K-Ras G12S = biological target: T1, K-Ras G12S (Homo sapiens, UniProt P01116, G12S); test: HTRF assay of the K-Ras / SOS1 interaction; type: biochemical; conditions: IC50 (against K-Ras G12D) to IC50 (against K-Ras G12S)
# T1 construct: made in house; host or cells: E. coli (e.g., BL21 (DE3))
# In short: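 Compounds (duplicates, 10 µM to 0.01 µM) were incubated ≥~10 min with Eu-labelled GST-K-Ras G12S and XL665-labelled His-hSOS1 in HEPES pH 7.4 buffer containing NaCl, DTT, BSA and Igepal. Disruption measured as HTRF emission ratio 665/620 nm, fitted to IC50.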
# [1] = A549, A549 cells (K-Ras G12S), bin ≤ 500 nM, read-out: Inhibition of A549 Cells (IC50)
# [2] = A549, A549 cells (K-Ras G12S), bin 500 nM to 5 µM, read-out: Inhibition of A549 Cells (IC50)
# T1 sequence (P01116 1-188 isoform P01116-2 G12S): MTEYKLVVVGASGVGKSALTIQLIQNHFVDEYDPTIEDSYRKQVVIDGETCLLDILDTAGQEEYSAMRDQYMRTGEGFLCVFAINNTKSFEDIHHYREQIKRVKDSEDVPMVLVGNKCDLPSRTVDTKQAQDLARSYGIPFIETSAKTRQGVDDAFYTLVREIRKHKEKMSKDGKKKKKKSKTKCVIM
Structure (SMILES),IC50 (A549 cells; [1]) [nM],IC50 (GP2D cells; GP2D cells (K-Ras G12D)) [nM],Ratio of IC50 KRAS G12D vs. IC50 KRAS G12S (K-Ras G12S),IC50 (A549 cells; [2]) [nM],ratio of IC50 against a G12D cell line to IC50 against a G12S cell line (A549 cells),"IC50 (A549 cells; A549, read-out: Inhibition of A549 Cells (IC50)) [nM]",IC50 (GP2D cells; GP2d) [nM]
"N#Cc1c(N)sc2c(F)ccc(-c3c(Cl)cc4c(N5CCOC6(CN(C(=O)n7ccnn7)C6)C5)nc(OC[C@@]56CCCN5C[C@H](F)C6)nc4c3F)c12 [Compound A195, 4-(4-(2-(1H-1,2,3-triazole-1-carbonyl)-5-oxa-2,8-diazaspiro[3.5]nonan-8-yl)-6-chloro-8-fluoro-2-(((2R,7aS)-2-fluorotetrahydro-1H-pyrrolizin-7a(5H)-yl)methoxy)quinazolin-7-yl)-2-amino-7-fluorobenzo[b]thiophene-3-carbonitrile]",≤ 500,1000 to 10000,A (A: indicates that the ratio of IC50 against KrasG12D vs. IC50 against KrasG12S is 1-fold or greater),,,,
"N#Cc1ccn(C(=O)N2C3CCC2CN(c2nc(OC[C@@]45CCCN4C[C@H](F)C5)nc4c(F)c(-c5ccc(F)c6sc(N)c(C#N)c56)c(Cl)cc24)C3)n1 [Compound A224, 1-(3-(7-(2-amino-3-cyano-7-fluorobenzo[b]thiophen-4-yl)-6-chloro-8-fluoro-2-(((2R,7aS)-2-fluorotetrahydro-1H-pyrrolizin-7a(5H)-yl)methoxy)quinazolin-4-yl)-3,8-diazabicyclo[3.2. 1]octane-8-carbonyl)-1H-pyrazole-3-carbonitrile]",,≤ 1000,A (A: indicates that the ratio of IC50 against KrasG12D vs. IC50 against KrasG12S is 1-fold or greater),500 to 5000,,,
"Cc1ncn(C(=O)N2CC3(C2)CN(c2nc(OC[C@@]45CCCN4C[C@H](F)C5)nc4c(F)c(-c5ccc(F)c6sc(N)c(C#N)c56)c(Cl)cc24)CCO3)n1 [Compound A148, 2-amino-4-(6-chloro-8-fluoro-2-(((2R,7aS)-2-fluorotetrahydro-1H-pyrrolizin-7 a(5H)-yl)methoxy)-4-(2-(3-methyl-1H-1,2,4-triazole-1-carbonyl)-5-oxa-2,8-diazaspiro[3.5]nonan-8-yl)quinazolin-7-yl)-7-fluorobenzo[b]thiophene-3-carbonitrile]",≤ 500,1000 to 10000,A (A: indicates that the ratio of IC50 against KrasG12D vs. IC50 against KrasG12S is 1-fold or greater),,,,
"N#Cc1c(N)sc2c(F)ccc(-c3c(Cl)cc4c(N5CCOC6CN(C(=O)n7cncn7)CC65)nc(OC[C@@]56CCCN5C[C@H](F)C6)nc4c3F)c12 (stereo partly drawn) [Compound A218, 4-(4-(6-(1H-1,2,4-triazole-1-carbonyl)hexahydropyrrolo [3,4-b][1,4]oxazin-4(4aH)-yl)-6-chloro-8-fluoro-2-(((2R,7aS)-2-fluorotetrahydro-1H-pyrrolizin-7a(5H)-yl)methoxy)quinazolin-7-yl)-2-amino-7-fluorobenzo[b]thiophene-3-carbonitrile]",≤ 500,1000 to 10000,A (A: indicates that the ratio of IC50 against KrasG12D vs. IC50 against KrasG12S is 1-fold or greater),,greater than 1,,
"N#Cc1c(N)sc2c(F)ccc(-c3ncc4c(N5CCCC6(CN(C(=O)n7cncn7)C6)C5)nc(OC[C@@]56CCCN5C[C@H](F)C6)nc4c3F)c12 [Compound A134, 4-(4-(2-(1H-1,2,4-triazole-1-carbonyl)-2,6-diazaspiro[3.5]nonan-6-yl)-8-fluoro-2-(((2R,7aS)-2-fluorotetrahydro-1H-pyrrolizin-7a(5H)-yl)methoxy)pyrido[4,3-d]pyrimidin-7-yl)-2-amino-7-fluorobenzo[b]thiophene-3-carbonitrile]",,1000 to 10000,A (A: indicates that the ratio of IC50 against KrasG12D vs. IC50 against KrasG12S is 1-fold or greater),500 to 5000,,,
"N#Cc1c(N)sc2c(F)ccc(-c3c(Cl)cc4c(N5CCC6(CN(C(=O)n7cncn7)C6)C5)nc(OC[C@@]56CCCN5C[C@H](F)C6)nc4c3F)c12 [Compound A277, 4-(4-(2-(1H-1,2,4-triazole-1-carbonyl)-2,6-diazaspiro[3.4]octan-6-yl)-6-chloro-8-fluoro-2-(((2R,7aS)-2-fluorotetrahydro-1H-pyrrolizin-7a(5H)-yl)methoxy)quinazolin-7-yl)-2-amino-7-fluorobenzo[b]thiophene-3-carbonitrile]",≤ 500,1000 to 10000,A (A: indicates that the ratio of IC50 against KrasG12D vs. IC50 against KrasG12S is 1-fold or greater),,greater than 1,,
"Nc1nc2c(-c3c(Cl)cc4c(N5CCN(C(=O)n6cncn6)CC(F)(F)C5)nc(OC[C@@]56CCCN5C[C@H](F)C6)nc4c3F)ccc(F)c2s1 [Compound A141, (4-(7-(2-amino-7-fluorobenzo[d]thiazol-4-yl)-6-chloro-8-fluoro-2-(((2R,7aS)-2-fluorotetrahydro-1H-pyrrolizin-7a(5H)-yl)methoxy)quinazolin-4-yl)-6,6-difluoro-1,4-diazepan-1-yl)(1H-1,2,4-triazol-1-yl)methanone]",,1000 to 10000,A (A: indicates that the ratio of IC50 against KrasG12D vs. IC50 against KrasG12S is 1-fold or greater),500 to 5000,,,
"N#Cc1c(N)sc2c(F)ccc(-c3c(Cl)cc4c(N5CCC6C5CCCN6C(=O)n5cncn5)nc(OC[C@@]56CCCN5C[C@H](F)C6)nc4c3F)c12 (stereo partly drawn) [Compound A152, 4-(4-(4-(1H-1,2,4-triazole-1-carbonyl)octahydro-1H-pyrrolo[3,2-b]pyridin-1-yl)-6-chloro-8-fluoro-2-(((2R,7aS)-2-fluorotetrahydro-1H-pyrrolizin-7a(5H)-yl)methoxy)quinazolin-7-yl)-2-amino-7-fluorobenzo[b]thiophene-3-carbonitrile]",≤ 500,≤ 1000,A (A: indicates that the ratio of IC50 against KrasG12D vs. IC50 against KrasG12S is 1-fold or greater),,greater than 1,,
"CN(C)C1CN(c2nc(N3CCOC4(CN(C(=O)n5cncn5)C4)C3)c3cc(Cl)c(-c4ccc(F)c5sc(N)c(C#N)c45)c(F)c3n2)C1 [Compound A256, 4-(4-(2-(1H-1,2,4-triazole-1-carbonyl)-5-oxa-2,8-diazaspiro[3.5]nonan-8-yl)-6-chloro-2-(3-(dimethylamino)azetidin-1-yl)-8-fluoroquinazolin-7-yl)-2-amino-7-fluorobenzo[b]thiophene-3-carbonitrile]",≤ 500,1000 to 10000,A (A: indicates that the ratio of IC50 against KrasG12D vs. IC50 against KrasG12S is 1-fold or greater),,,,
"N#Cc1nccn1C(=O)N1C2CCC1CN(c1nc(OC[C@@]34CCCN3C[C@H](F)C4)nc3c(F)c(-c4ccc(F)c5sc(N)nc45)c(Cl)cc13)C2 [Compound A170, 1-(3-(7-(2-amino-7-fluorobenzo[d]thiazol-4-yl)-6-chloro-8-fluoro-2-(((2R,7aS)-2-fluorotetrahydro-1H-pyrrolizin-7a(5H)-yl)methoxy)quinazolin-4-yl)-3,8-diazabicyclo[3.2. 1]octane-8-carbonyl)-1H-imidazole-2-carbonitrile]",,,A (A: indicates that the ratio of IC50 against KrasG12D vs. IC50 against KrasG12S is 1-fold or greater),,,500 to 5000,≤ 1000
"N#Cc1c(N)sc2c(F)ccc(-c3c(Cl)cc4c(N5CC6(CCCCN(C(=O)n7cncn7)C6)C5)nc(OC[C@@]56CCCN5C[C@H](F)C6)nc4c3F)c12 [Compound A285, 4-(4-(6-(1H-1,2,4-triazole-1-carbonyl)-2,6-diazaspiro[3.6]decan-2-yl)-6-chloro-8-fluoro-2-(((2R,7aS)-2-fluorotetrahydro-1H-pyrrolizin-7a(5H)-yl)methoxy)quinazolin-7-yl)-2-amino-7-fluorobenzo[b]thiophene-3-carbonitrile]",≤ 500,1000 to 10000,A (A: indicates that the ratio of IC50 against KrasG12D vs. IC50 against KrasG12S is 1-fold or greater),,,,
"Nc1nc2c(-c3c(Cl)cc4c(N5CCCN(C(=O)n6cncn6)CC5)nc(OC[C@@]56CCCN5C[C@H](F)C6)nc4c3F)ccc(F)c2s1 [Compound A191, (4-(7-(2-amino-7-fluorobenzo[d]thiazol-4-yl)-6-chloro-8-fluoro-2-(((2R,7aS)-2-fluorotetrahydro-1H-pyrrolizin-7a(5H)-yl)methoxy)quinazolin-4-yl)-1,4-diazepan-1-yl)(1H-1,2,4-triazol-1-yl)methanone]",,1000 to 10000,A (A: indicates that the ratio of IC50 against KrasG12D vs. IC50 against KrasG12S is 1-fold or greater),500 to 5000,,,
